Measurements from publication PMC4006998 (Nature chemical biology, 2009).

Key:
AmpC β-lactamase [1] = target: T1, AmpC β-lactamase (Escherichia coli, UniProt P00811); type: biochemical; details: read-out: Km of nitrocefin for AmpC; substrate; 100 mM Tris-HCl pH 7.0
CTX-M β-lactamase = CTX-M β-lactamase (Escherichia coli, UniProt Q9L5C8); type: biochemical; details: Ki AmpC versus Ki CTX-M
AmpC β-lactamase [2] = target: T1, AmpC β-lactamase; details: at relevant concentrations; no reference given; cited from earlier work
[3] = system: O=C(Cc1cccs1)N[C@@H]1C(=O)N2C(C(=O)O)=C(/C=C/c3ccc([N+](=O)[O-])cc3[N+](=O)[O-])CS[C@H]12; test: purified protein, by the assay type; details: other: substrate, 100 mM Tris-HCl pH 7.0, 19.0 °C

T1 sequence (P00811 20-377): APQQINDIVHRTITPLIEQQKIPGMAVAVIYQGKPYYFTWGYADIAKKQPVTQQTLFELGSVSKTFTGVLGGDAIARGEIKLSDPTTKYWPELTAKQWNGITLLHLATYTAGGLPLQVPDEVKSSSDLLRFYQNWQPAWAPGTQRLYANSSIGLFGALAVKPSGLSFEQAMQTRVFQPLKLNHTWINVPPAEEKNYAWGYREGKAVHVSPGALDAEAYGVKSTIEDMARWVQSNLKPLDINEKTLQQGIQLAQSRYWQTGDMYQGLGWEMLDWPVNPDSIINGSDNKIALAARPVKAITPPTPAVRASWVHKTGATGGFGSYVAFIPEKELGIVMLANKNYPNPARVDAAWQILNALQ

**Q.** With `O=C(Cc1cccs1)N[C@@H]1C(=O)N2C(C(=O)O)=C(/C=C/c3ccc([N+](=O)[O-])cc3[N+](=O)[O-])CS[C@H]12` [nitrocefin] as the compound, how does the Km (AmpC β-lactamase [1]) read?
**A.** Its Km is 400 µM.

**Q.** With `O=C(Nc1cccc(-c2nnn[nH]2)c1)c1cccc(F)c1` [Compound 12] as the compound, how does the “specificity (CTX-M over AmpC)” value (CTX-M β-lactamase) read?
**A.** Its value is “over 100 fold”.

**Q.** With `O=C(O)[C@H]1/C(=C/CO)O[C@@H]2CC(=O)N21` [clavulanate] as the compound, how does the “inhibition of AmpC” value (AmpC β-lactamase [2]) read?
**A.** Its value is “does not inhibit AmpC at relevant concentrations”.

**Q.** For CTX-M β-lactamase (Escherichia coli), which Km [3] is on record?
**A.** Its Km is 11.6 µM.
